Where two headings read alike, the source gives them in different places.
How the values were obtained:
[1] = molecular target: T1, nuclear factor-kappa B (NF-kB)-inducing kinase (NIK) (Homo sapiens, UniProt Q99558); assay: NIK enzyme inhibition assay (Transcreener ADP fluorescence polarization, NIK ADP-FP); type: biochemical
T1 construct: made in house; host or cells: baculovirus-infected insect cells

[2] = tested on: REL-A (p65) nuclear translocation in HeLa cells; assay: REL-A (p65) nuclear translocation assay in HeLa cells, TNF-α stimulated (classical NF-kB signaling), high content imaging; type: cell-based; settings: compound 4.5 h, then 10 ng/mL TNF-α for 30 minutes, read-out: REL-A HeLa Transloc Assay (IC50)
Outline: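 HeLa cells in medium with 10% fetal bovine serum were exposed to compounds (0.2% DMSO final) for 4.5 hours, then stimulated with 10 ng/mL TNF-α for 30 minutes. After fixation in 4% paraformaldehyde and permeabilization with 0.1% Triton X-100, cells were stained with 400 ng/mL anti-REL-A (p65) antibody, an Alexa488 secondary and DRAQ5. Opera imaging quantified the nuclear-to-cytoplasmic signal ratio to give IC50.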

[3] = tested on: p52 (NF-kB2) nuclear translocation in HeLa cells; assay: p52 (NF-kB2) nuclear translocation assay in HeLa cells, anti-lymphotoxin beta receptor antibody stimulated (non-classical NF-kB signaling), high content imaging; type: cell-based; settings: 100 ng/mL anti-lymphotoxin beta receptor antibody for 5 hours, read-out: p52 HeLa Transloc Assay (IC50)
Outline: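 HeLa cells in 10% FBS medium were treated with compound (0.2% DMSO final) and stimulated with 100 ng/mL anti-lymphotoxin beta receptor antibody for 5 h. Fixed cells were immunostained for p52 and imaged with DRAQ5 nuclear stain. Translocation is the nuclear to cytoplasmic intensity ratio, […].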

T1 sequence (Q99558 whole entry): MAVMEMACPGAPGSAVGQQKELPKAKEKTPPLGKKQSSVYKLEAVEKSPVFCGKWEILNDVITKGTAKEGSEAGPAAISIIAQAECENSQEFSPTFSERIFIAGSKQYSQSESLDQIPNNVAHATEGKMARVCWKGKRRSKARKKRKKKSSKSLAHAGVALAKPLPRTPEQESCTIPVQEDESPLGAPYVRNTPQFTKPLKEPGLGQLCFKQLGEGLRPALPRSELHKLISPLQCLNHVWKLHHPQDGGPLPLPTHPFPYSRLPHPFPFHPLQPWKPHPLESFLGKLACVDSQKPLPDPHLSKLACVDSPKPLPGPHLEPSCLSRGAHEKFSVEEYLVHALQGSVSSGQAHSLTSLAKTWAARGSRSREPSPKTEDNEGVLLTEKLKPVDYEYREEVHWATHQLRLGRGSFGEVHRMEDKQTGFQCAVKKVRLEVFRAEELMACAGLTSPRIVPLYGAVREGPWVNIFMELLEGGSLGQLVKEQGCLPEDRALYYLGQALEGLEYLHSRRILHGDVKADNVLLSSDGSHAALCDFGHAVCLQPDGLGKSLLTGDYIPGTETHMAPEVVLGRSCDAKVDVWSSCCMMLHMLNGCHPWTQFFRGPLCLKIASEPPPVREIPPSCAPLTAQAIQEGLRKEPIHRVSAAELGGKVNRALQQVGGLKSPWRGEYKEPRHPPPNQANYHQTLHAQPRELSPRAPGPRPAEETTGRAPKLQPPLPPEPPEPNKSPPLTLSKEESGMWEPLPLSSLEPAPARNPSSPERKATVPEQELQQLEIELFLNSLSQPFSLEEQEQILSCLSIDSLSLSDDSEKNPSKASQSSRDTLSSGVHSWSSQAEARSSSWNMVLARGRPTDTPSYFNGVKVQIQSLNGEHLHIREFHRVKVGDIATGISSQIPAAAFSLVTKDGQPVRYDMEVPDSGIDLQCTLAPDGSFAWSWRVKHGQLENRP

SMILES | Ki [1] [nM] | IC50 ([2]; Homo sapiens, HeLa) [nM] | IC50 ([3]; Homo sapiens) [nM] | Ki ([1]; purified NIK 0.5 nM, 10 μM ATP, pH 7.2, Ki from Morrison's quadratic equation) [nM] | IC50 [2] [nM] | IC50 [3] [nM]
CN1CC[C@@](O)(C#Cc2cccc(-c3ncc(NC4CC4)c(C(N)=O)n3)c2)C1=O [Example 87, 5-(cyclopropylamino)-2-[3-[2-[(3R)-3-hydroxy-1-methyl-2-oxo-pyrrolidin-3-yl]ethynyl]phenyl] pyrimidine-4-carboxamide] | 0.14 | 1000 | 4 | – | – | –
CN1CC[C@@](O)(C#Cc2cccc(-c3ncc(NC4COC4)c(C(N)=O)n3)c2)C1=O [Example 88, 2-[3-[2-[(3R)-3-hydroxy-1-methyl-2-oxo-pyrrolidin-3-yl]ethynyl]phenyl]-5-(oxetan-3-ylamino) pyrimidine-4-carboxamide] | 0.05 | ≥ 20000 | 2.12 | – | – | –
COCCNc1cnc(-c2cccc(C#C[C@]3(O)CCN(C)C3=O)c2)nc1C(N)=O [Example 89, 2-[3-[2-[(3R)-3-hydroxy-1-methyl-2-oxo-pyrrolidin-3-yl]ethynyl]phenyl]-5-(2-methoxyethylamino) pyrimidine-4-carboxamide] | 0.05 | 1000 | 32.4 | – | – | –
CN1CC[C@@](O)(C#Cc2ccc(F)c(-c3cccc(C(N)=O)n3)c2)C1=O [Example 92, 6-[2-fluoro-5-[2-[(3R)-3-hydroxy-1-methyl-2-oxo-pyrrolidin-3-yl]ethynyl]phenyl]pyridine-2-carboxamide] | 0.39 | ≥ 20000 | 133 | – | – | –
COc1ccc2nc(-c3cccc(C#C[C@]4(O)CCN(C)C4=O)c3)nc(C(N)=O)c2c1 [Example 93, 2-[3-[2-[(3R)-3-hydroxy-1-methyl-2-oxo-pyrrolidin-3-yl]ethynyl]phenyl]-6-methoxy-quinazoline-4-carboxamide] | 0.15 | 6320 | 21 | – | – | –
Cc1cc(C#C[C@]2(O)CCN(C)C2=O)cc(-c2nccc(C(N)=O)n2)c1 [Example 94, 2-[3-[2-[(3R)-3-hydroxy-1-methyl-2-oxo-pyrrolidin-3-yl]ethynyl]-5-methyl-phenyl]pyrimidine-4-carboxamide] | 1.41 | ≥ 20000 | 175 | – | – | –
Cc1ccc(-c2cc(C(N)=O)nc(-c3cccc(C#C[C@]4(O)CCN(C)C4=O)c3)n2)cn1 [Example 95, 2-[3-[2-[(3R)-3-hydroxy-1-methyl-2-oxo-pyrrolidin-3-yl]ethynyl]phenyl]-6-(6-methyl-3-pyridyl)pyrimidine-4-carboxamide] | 0.49 | ≥ 20000 | 55.2 | – | – | –
CN1CC[C@@](O)(C#Cc2cccc(-c3nc(C(N)=O)cc(-c4cnccn4)n3)c2)C1=O [Example 96, 2-[3-[2-[(3R)-3-hydroxy-1-methyl-2-oxo-pyrrolidin-3-yl]ethynyl]phenyl]-6-pyrazin-2-yl-pyrimidine-4-carboxamide] | 0.45 | ≥ 20000 | 34.7 | – | – | –
CN1CC[C@@](O)(C#Cc2cccc(-c3nc(C(N)=O)cc(-c4cc(F)cc(F)c4)n3)c2)C1=O [Example 97, 6-(3,5-difluorophenyl)-2-[3-[2-[(3R)-3-hydroxy-1-methyl-2-oxo-pyrrolidin-3-yl]ethynyl]phenyl]pyrimidine-4-carboxamide] | 0.37 | ≥ 20000 | 57.5 | – | – | –
CN1CC[C@@](O)(C#Cc2cccc(-c3nc(C(N)=O)cc(-c4cc(F)ccc4F)n3)c2)C1=O [Example 98, 6-(2,5-difluorophenyl)-2-[3-[2-[(3R)-3-hydroxy-1-methyl-2-oxo-pyrrolidin-3-yl]ethynyl]phenyl]pyrimidine-4-carboxamide] | 0.23 | ≥ 20000 | 82 | – | – | –
CN1CC[C@@](O)(C#Cc2cccc(-c3nc(OC4COC4)cc(C(N)=O)n3)c2)C1=O [Example 99, 2-[3-[2-[(3R)-3-hydroxy-1-methyl-2-oxo-pyrrolidin-3-yl]ethynyl]phenyl]-6-(oxetan-3-yloxy) pyrimidine-4-carboxamide] | 0.48 | ≥ 20000 | 104 | – | – | –
CN1CC[C@@](O)(C#Cc2cccc(-c3ncc(NCC4COC4)c(C(N)=O)n3)c2)C1=O [Example 100, 2-[3-[2-[(3R)-3-hydroxy-1-methyl-2-oxo-pyrrolidin-3-yl]ethynyl]phenyl]-5-(oxetan-3-ylmethylamino) pyrimidine-4-carboxamide] | 0.1 | ≥ 20000 | 11.6 | – | – | –
COC(C)(C)CNc1cnc(-c2cccc(C#C[C@]3(O)CCN(C)C3=O)c2)nc1C(N)=O [Example 101, 2-[3-[2-[(3R)-3-hydroxy-1-methyl-2-oxo-pyrrolidin-3-yl]ethynyl]phenyl]-5-[(2-methoxy-2-methyl-propyl)amino]pyrimidine-4-carboxamide] | 0.52 | ≥ 20000 | 92.6 | – | – | –
CN1CC[C@@](O)(C#Cc2cccc(-c3ncc(NCCN4CCOCC4)c(C(N)=O)n3)c2)C1=O [Example 102, 2-[3-[2-[(3R)-3-hydroxy-1-methyl-2-oxo-pyrrolidin-3-yl]ethynyl]phenyl]-5-(2-morpholinoethylamino) pyrimidine-4-carboxamide] | 0.21 | ≥ 20000 | 66.9 | – | – | –
Cc1cnn(-c2cc(C(N)=O)nc(-c3cccc(C#C[C@]4(O)CCN(C)C4=O)c3)n2)c1 [Example 104, 2-[3-[2-[(3R)-3-hydroxy-1-methyl-2-oxo-pyrrolidin-3-yl]ethynyl]phenyl]-6-(4-methylpyrazol-1-yl) pyrimidine-4-carboxamide] | – | – | – | 0.4 | ≥ 20000 | 69.2
CN1CC[C@@](O)(C#Cc2cccc(-c3ncc(NCC4(C)COC4)c(C(N)=O)n3)c2)C1=O [Example 105, 2-[3-[2-[(3R)-3-hydroxy-1-methyl-2-oxo-pyrrolidin-3-yl]ethynyl]phenyl]-5-[(3-methyloxetan-3-yl)methylamino]pyrimidine-4-carboxamide] | 0.35 | ≥ 2000 | 73.3 | – | – | –
CN1CC[C@@](O)(C#Cc2cccc(-c3nc(OC4COC4)c(N)c(C(N)=O)n3)c2)C1=O [Example 106, 5-amino-2-[3-[2-[(3R)-3-hydroxy-1-methyl-2-oxo-pyrrolidin-3-yl]ethynyl]phenyl]-6-(oxetan-3-yloxy)pyrimidine-4-carboxamide] | 0.25 | ≥ 2000 | 70 | – | – | –
CN1CC[C@@](O)(C#Cc2cccc(-c3nc(OC4CCOCC4)c(N)c(C(N)=O)n3)c2)C1=O [Example 107, 5-amino-2-[3-[2-[(3R)-3-hydroxy-1-methyl-2-oxo-pyrrolidin-3-yl]ethynyl]phenyl]-6-tetrahydropyran-4-yloxy-pyrimidine-4-carboxamide] | 0.4 | ≥ 2000 | 269 | – | – | –
COCCOc1nc(-c2cccc(C#C[C@]3(O)CCN(C)C3=O)c2)nc(C(N)=O)c1N [Example 108, 5-amino-2-[3-[2-[(3R)-3-hydroxy-1-methyl-2-oxo-pyrrolidin-3-yl]ethynyl]phenyl]-6-(2-methoxyethoxy)pyrimidine-4-carboxamide] | 0.65 | ≥ 2000 | 213 | – | – | –
COCCNc1cnc(-c2cc(C#C[C@]3(O)CCN(C)C3=O)ccc2F)nc1C(N)=O [Example 109, 2-[2-fluoro-5-[2-[(3R)-3-hydroxy-1-methyl-2-oxo-pyrrolidin-3-yl]ethynyl]phenyl]-5-(2-methoxyethylamino) pyrimidine-4-carboxamide] | 0.28 | ≥ 2000 | 83.1 | – | – | –

From US20160185797A1, “ALKYNYL ALCOHOLS AND METHODS OF USE” (Genentech, Inc., priority 2013, published 2016)
